Experiment [1] addresses T1, Mitogen-activated protein kinase kinase kinase 6 (Homo sapiens) (UniProt O95382).
T1 sequence (whole entry): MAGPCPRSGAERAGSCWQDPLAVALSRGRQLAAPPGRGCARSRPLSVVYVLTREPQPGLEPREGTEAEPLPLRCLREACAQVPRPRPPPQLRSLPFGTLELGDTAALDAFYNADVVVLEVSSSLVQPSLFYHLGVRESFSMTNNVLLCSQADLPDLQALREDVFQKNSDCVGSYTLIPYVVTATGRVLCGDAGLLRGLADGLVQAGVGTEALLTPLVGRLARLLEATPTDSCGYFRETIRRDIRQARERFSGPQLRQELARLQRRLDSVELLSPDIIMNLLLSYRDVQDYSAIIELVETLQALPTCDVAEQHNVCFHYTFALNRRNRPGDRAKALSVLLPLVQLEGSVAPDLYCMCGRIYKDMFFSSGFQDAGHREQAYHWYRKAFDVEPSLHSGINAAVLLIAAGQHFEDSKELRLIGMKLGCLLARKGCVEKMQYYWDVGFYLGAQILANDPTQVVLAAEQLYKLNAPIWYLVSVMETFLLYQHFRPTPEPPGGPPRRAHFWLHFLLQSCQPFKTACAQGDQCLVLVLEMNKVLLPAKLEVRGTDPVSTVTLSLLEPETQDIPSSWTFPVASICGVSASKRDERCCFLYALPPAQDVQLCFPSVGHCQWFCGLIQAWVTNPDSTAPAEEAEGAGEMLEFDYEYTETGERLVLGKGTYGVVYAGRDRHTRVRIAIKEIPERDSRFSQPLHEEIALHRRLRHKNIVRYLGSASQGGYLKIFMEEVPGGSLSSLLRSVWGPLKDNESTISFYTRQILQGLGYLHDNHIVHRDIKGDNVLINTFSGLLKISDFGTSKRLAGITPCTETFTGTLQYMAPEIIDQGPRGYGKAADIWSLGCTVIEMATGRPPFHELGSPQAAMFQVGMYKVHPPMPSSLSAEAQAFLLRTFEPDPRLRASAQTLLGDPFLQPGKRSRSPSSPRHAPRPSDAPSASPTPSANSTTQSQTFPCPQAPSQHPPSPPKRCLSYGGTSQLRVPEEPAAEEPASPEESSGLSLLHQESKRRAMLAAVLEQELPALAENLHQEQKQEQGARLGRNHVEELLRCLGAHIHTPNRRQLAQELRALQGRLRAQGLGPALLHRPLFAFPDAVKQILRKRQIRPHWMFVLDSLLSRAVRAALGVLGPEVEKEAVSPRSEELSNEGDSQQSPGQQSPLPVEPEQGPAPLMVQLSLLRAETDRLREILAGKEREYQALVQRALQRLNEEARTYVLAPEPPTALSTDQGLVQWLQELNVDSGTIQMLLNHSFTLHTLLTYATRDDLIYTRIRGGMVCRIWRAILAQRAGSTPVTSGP
The experiment can be described thus: Selectivity interaction (ActivX KiNativ screen (ex vivo kinase selectivity in human PBMCs)) EUB0001619a MAP3K6. The format is cell-based. Conditions: PBMC, at 1 µM.

Experiment [2] has as its target T2, SNF-related serine/threonine-protein kinase (Homo sapiens) (UniProt Q9NRH2).
T2 sequence (whole entry): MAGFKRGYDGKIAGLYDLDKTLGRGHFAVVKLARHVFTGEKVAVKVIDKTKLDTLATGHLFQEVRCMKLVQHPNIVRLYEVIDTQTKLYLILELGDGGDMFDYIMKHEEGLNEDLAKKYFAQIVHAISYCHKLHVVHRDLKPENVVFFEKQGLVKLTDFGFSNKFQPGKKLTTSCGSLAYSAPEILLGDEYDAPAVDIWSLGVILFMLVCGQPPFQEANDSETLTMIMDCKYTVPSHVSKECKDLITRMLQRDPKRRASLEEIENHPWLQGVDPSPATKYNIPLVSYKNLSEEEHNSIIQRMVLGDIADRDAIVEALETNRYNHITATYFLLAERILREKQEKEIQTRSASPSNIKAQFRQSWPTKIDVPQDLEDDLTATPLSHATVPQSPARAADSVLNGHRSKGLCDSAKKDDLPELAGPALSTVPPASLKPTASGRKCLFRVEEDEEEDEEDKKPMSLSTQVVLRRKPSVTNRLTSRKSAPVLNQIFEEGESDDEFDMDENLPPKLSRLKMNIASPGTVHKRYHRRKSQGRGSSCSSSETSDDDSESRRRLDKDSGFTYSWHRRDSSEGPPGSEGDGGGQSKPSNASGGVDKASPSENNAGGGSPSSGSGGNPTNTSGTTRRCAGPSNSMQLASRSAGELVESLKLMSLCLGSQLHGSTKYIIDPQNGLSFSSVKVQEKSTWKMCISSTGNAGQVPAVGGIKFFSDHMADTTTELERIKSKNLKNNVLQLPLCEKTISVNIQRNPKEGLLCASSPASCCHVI
The experiment is described as follows: Selectivity interaction (ActivX KiNativ screen (kinase selectivity in THP-1 cell lysates)) EUB0000639a SNRK. The format is subcellular. Conditions: lysate, at 5 µM.

Experiment [3] deals with T3, Dual specificity protein kinase TTK (Homo sapiens) (UniProt P33981).
T3 sequence (whole entry): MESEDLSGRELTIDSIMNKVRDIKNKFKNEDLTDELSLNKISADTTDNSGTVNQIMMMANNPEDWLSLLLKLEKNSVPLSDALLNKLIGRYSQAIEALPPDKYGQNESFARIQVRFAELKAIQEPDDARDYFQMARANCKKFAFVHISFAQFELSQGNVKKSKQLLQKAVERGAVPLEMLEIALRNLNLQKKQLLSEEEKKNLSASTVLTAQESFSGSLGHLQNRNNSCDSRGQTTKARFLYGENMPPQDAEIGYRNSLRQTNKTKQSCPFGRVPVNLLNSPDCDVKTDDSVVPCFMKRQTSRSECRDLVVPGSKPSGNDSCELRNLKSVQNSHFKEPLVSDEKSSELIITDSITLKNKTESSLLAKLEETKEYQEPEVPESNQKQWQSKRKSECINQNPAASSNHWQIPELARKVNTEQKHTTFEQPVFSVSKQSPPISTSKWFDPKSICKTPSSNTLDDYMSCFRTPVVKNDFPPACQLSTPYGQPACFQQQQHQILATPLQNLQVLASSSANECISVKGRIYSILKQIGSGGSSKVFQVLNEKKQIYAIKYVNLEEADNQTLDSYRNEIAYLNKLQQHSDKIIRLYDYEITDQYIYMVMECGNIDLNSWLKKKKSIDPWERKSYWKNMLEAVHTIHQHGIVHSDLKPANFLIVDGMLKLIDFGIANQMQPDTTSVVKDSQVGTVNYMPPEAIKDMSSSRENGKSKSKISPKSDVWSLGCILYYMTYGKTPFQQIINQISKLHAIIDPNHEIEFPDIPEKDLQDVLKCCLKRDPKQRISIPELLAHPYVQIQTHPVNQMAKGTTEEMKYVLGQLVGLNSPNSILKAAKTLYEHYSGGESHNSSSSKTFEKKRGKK
The experiment can be described thus: Selectivity interaction (KinomeScan (DiscoverX)) EUB0000618a TTK. Conditions: at 10 µM.

Each structure is given as a SMILES string.

Regarding `N#Cc1cccc(-c2c[nH]c3ncnc(N4CCOCC4)c23)c1`, the % of inhibition in experiment [1] was found to be 21%.

Molecule `CC[C@@H]1[C@H](F)C(=O)N[C@@H]1COc1nccc2cc(C(N)=O)c(OC)cc12` [ZIMLOVISERTIB] registered a % of inhibition in experiment [2] of 16.9%.

`O[C@H]1CC[C@H](Nc2ncc3nc(Nc4c(F)cc(F)cc4F)n([C@H]4CCOC4)c3n2)CC1` registered a % of control in experiment [3] of 85%.

Values taken from ChEMBL document CHEMBL5465560, “Selectivity Literature for EUbOPEN Chemogenomic Library” (2024).
